According to PubChem BioAssay (NCI):
Several values for one entry are separate records, joined by “and”; a condition that tells them apart may be missing. Equal values may be shown once.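 The compound was tested at five concentrations on cells cultured in 96-well plates, with a 48-hour exposure period. GI50 = concentration required for 50% inhibition of growth. Definition used: TGI = concentration required for complete inhibition of growth.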

Key:
Experiment in all cases: growth of human tumour cells (NCI), 48 h
[1] = system: OVCAR-5 ovarian
[2] = system: SF-268 CNS
[3] = system: CAKI-1 renal
[4] = system: COLO 205 colon
[5] = system: UO-31 renal
[6] = system: PC-3 prostate
[7] = system: 786-0 renal
[8] = system: MCF7 breast
[9] = system: HCC-2998 colon
[10] = system: SK-MEL-2 melanoma
[11] = system: A549 NSCLC
[12] = system: LOX IMVI melanoma
[13] = system: HCT-116 colon
[14] = system: KM12 colon
[15] = system: RXF 393 renal
[16] = system: MOLT-4 leukemia
[17] = system: U251 CNS
[18] = system: CCRF-CEM leukemia
[19] = system: A498 renal
[20] = system: DLD-1 colon
[21] = system: BT-549 breast
[22] = system: HOP-92 NSCLC
[23] = system: T-47D breast
[24] = system: SK-MEL-28 melanoma
[25] = system: UACC-62 melanoma
[26] = system: SF-295 CNS
[27] = system: NCI-H522 lung
[28] = system: SK-MEL-5 melanoma
[29] = system: NCI-H460 lung
[30] = system: UACC-257 melanoma
[31] = system: SK-OV-3 ovarian
[32] = system: MDA-MB-435
[33] = system: K-562 leukemia
[34] = system: NCI/ADR-RES ovarian
[35] = system: SW-620 colon
[36] = system: HS 578T breast
[37] = system: M19-MEL melanoma
[38] = system: DMS 273 small cell lung
[39] = system: SNB-75 CNS
[40] = system: DU-145 prostate
[41] = system: HL-60(TB) leukemia
[42] = system: SN12C renal
[43] = system: SR leukemia
[44] = system: LXFL 529 NSCLC
[45] = system: OVCAR-8 ovarian
[46] = system: SNB-19 CNS
[47] = system: NCI-H23 lung
[48] = system: HCT-15 colon
[49] = system: MALME-3M melanoma
[50] = system: OVCAR-4 ovarian
[51] = system: ACHN renal
[52] = system: SNB-78 CNS
[53] = system: IGROV1 ovarian
[54] = system: DMS 114 small cell lung
[55] = system: TK-10 renal
[56] = system: SF-539 CNS
[57] = system: HT29 colon
[58] = system: MDA-N
[59] = system: MDA-MB-231 breast
[60] = system: EKVX NSCLC
[61] = system: NCI-H226 lung
[62] = system: KM20L2 colon
[63] = system: RPMI-8226 leukemia
[64] = system: OVCAR-3 ovarian
[65] = system: M14 melanoma
[66] = system: HOP-62 NSCLC

Structure (SMILES): CN(C)CCCN1c2ccccc2Sc2ccc(C(F)(F)F)cc21
- GI50 [1]: 1.63 µM
- TGI [1]: 3.25 µM and 31.6 µM
- GI50 [2]: 1.75 µM
- TGI [2]: 3.94 µM and 31.8 µM and 29.2 µM
- GI50 [3]: 1.54 µM
- TGI [3]: 3.15 µM and 24 µM
- GI50 [4]: 1.38 µM
- GI50 [5]: 1.48 µM
- TGI [5]: 5.38 µM and 28.3 µM and 28.9 µM
- GI50 [6]: 1.67 µM
- TGI [6]: 4 µM and 28.6 µM
- GI50 [7]: 1.63 µM
- TGI [7]: 3.09 µM and 27.1 µM and 27.9 µM
- GI50 [8]: 1.6 µM
- GI50 [9]: 1.46 µM and 10.5 µM and 4.5 µM
- TGI [9]: 2.89 µM and 23.8 µM and 15.8 µM
- GI50 [10]: 1.79 µM
- TGI [10]: 3.69 µM and 30.5 µM
- GI50 [11]: 1.89 µM
- TGI [11]: 3.83 µM and 31.9 µM and 31.4 µM
- GI50 [12]: 1.57 µM
- TGI [12]: 2.98 µM and 28.9 µM and 29.7 µM
- GI50 [13]: 1.64 µM
- TGI [13]: 3.13 µM and 28.5 µM and 27.2 µM
- GI50 [14]: 1.65 µM
- GI50 [15]: 1.32 µM
- GI50 [16]: 1.86 µM
- TGI [16]: 4.19 µM and 39.2 µM
- GI50 [17]: 1.69 µM
- TGI [17]: 3.14 µM and 29.6 µM and 29.4 µM
- GI50 [18]: 1.92 µM
- TGI [18]: 5 µM and 38.5 µM and 39 µM
- GI50 [19]: 1.05 µM
- TGI [20]: 31.9 µM
- GI50 [21]: 1.77 µM
- TGI [21]: 3.32 µM and 26.5 µM
- GI50 [22]: 1.04 µM
- TGI [22]: 2.99 µM and 26.3 µM
- GI50 [23]: 1.4 µM
- TGI [23]: 3.18 µM and 29.1 µM
- GI50 [24]: 1.68 µM
- GI50 [25]: 1.46 µM
- GI50 [26]: 1.65 µM
- TGI [26]: 3.23 µM and 30.4 µM and 29.1 µM
- GI50 [27]: 1.39 µM
- GI50 [28]: 1.57 µM
- GI50 [29]: 1.6 µM
- GI50 [30]: 1.62 µM
- TGI [30]: 3.49 µM and 29.5 µM and 26.7 µM
- GI50 [31]: 1.53 µM
- GI50 [32]: 1.6 µM
- GI50 [33]: 2.03 µM
- TGI [33]: 4.08 µM and 30.9 µM
- GI50 [34]: 1.66 µM
- TGI [34]: 3.42 µM and 31.1 µM
- GI50 [35]: 1.58 µM
- GI50 [36]: 1.63 µM
- TGI [36]: 3.7 µM and 28.5 µM
- TGI [37]: 32.3 µM
- TGI [38]: 29.4 µM
- GI50 [39]: 1.32 µM
- TGI [39]: 3.51 µM and 26 µM and 24.8 µM
- GI50 [40]: 1.79 µM
- TGI [40]: 3.22 µM and 31.2 µM
- GI50 [41]: 1.82 µM
- GI50 [42]: 1.66 µM
- TGI [42]: 3.62 µM and 32.2 µM and 29.5 µM
- GI50 [43]: 2.14 µM
- TGI [44]: > 100 µM
- GI50 [45]: 1.73 µM
- TGI [45]: 3.33 µM and 30 µM
- GI50 [46]: 1.71 µM
- TGI [46]: 3.27 µM and 28.8 µM and 30.3 µM
- GI50 [47]: 1.72 µM
- TGI [47]: 4.12 µM and 31.1 µM and 34.4 µM
- GI50 [48]: 1.92 µM
- TGI [48]: 3.73 µM and 31 µM and 31.1 µM
- GI50 [49]: 1.56 µM
- TGI [49]: 3.15 µM and 28.4 µM and 30.1 µM
- GI50 [50]: 1.97 µM
- TGI [50]: 5.53 µM and 28 µM
- GI50 [51]: 1.81 µM
- TGI [51]: 3.85 µM and 28.8 µM and 28.2 µM
- TGI [52]: 33.9 µM
- GI50 [53]: 1.67 µM
- TGI [53]: 3.31 µM and 29.3 µM and 30.1 µM
- TGI [54]: 34 µM
- GI50 [55]: 1.77 µM
- TGI [55]: 3.24 µM and 28.8 µM and 31.6 µM
- GI50 [56]: 1.83 µM
- GI50 [57]: 1.35 µM
- TGI [57]: 2.82 µM and 25.3 µM
- TGI [58]: 26.3 µM
- GI50 [59]: 1.45 µM
- TGI [59]: 2.9 µM and 26.5 µM
- GI50 [60]: 1.84 µM
- TGI [60]: 4.75 µM and 35.7 µM and 29.3 µM
- GI50 [61]: 1.56 µM
- TGI [61]: 3.17 µM
- TGI [62]: 23.7 µM
- GI50 [63]: 2.03 µM
- TGI [63]: 6.06 µM and 35.7 µM and 45.4 µM

Structure (SMILES): NC1=Nc2cc(C(F)(F)F)ccc2Sc2nc3ccccc3n21
- TGI [1]: > 100 µM
- TGI [2]: > 100 µM
- TGI [3]: > 100 µM
- TGI [4]: > 100 µM
- TGI [5]: > 100 µM
- TGI [6]: > 100 µM
- TGI [7]: > 28.6 µM
- TGI [8]: > 100 µM
- TGI [64]: > 100 µM
- TGI [9]: > 100 µM
- TGI [65]: > 43.2 µM
- TGI [10]: > 100 µM
- TGI [11]: > 100 µM
- TGI [12]: > 100 µM
- TGI [13]: > 100 µM
- TGI [14]: > 100 µM
- TGI [15]: > 100 µM
- TGI [16]: > 100 µM
- TGI [17]: > 100 µM
- TGI [18]: > 24.8 µM
- TGI [19]: > 100 µM
- TGI [21]: > 100 µM
- TGI [22]: 80.4 µM
- TGI [23]: > 100 µM
- TGI [24]: > 100 µM
- TGI [25]: > 100 µM
- TGI [26]: > 100 µM
- TGI [27]: > 71.1 µM
- TGI [28]: > 100 µM
- TGI [29]: > 100 µM
- TGI [30]: > 100 µM
- TGI [31]: > 100 µM
- TGI [32]: > 100 µM
- TGI [33]: > 100 µM
- TGI [66]: > 100 µM
- TGI [34]: > 100 µM
- TGI [35]: > 100 µM
- TGI [36]: > 100 µM
- TGI [39]: 71.2 µM
- TGI [40]: > 100 µM
- TGI [41]: > 26 µM
- TGI [42]: > 100 µM
- TGI [43]: > 25.4 µM
- TGI [45]: > 100 µM
- TGI [46]: > 100 µM
- TGI [47]: > 100 µM
- TGI [48]: > 100 µM
- TGI [49]: > 100 µM
- TGI [50]: > 100 µM
- TGI [51]: > 100 µM
- TGI [53]: > 100 µM
- TGI [55]: > 100 µM
- TGI [56]: > 100 µM
- TGI [57]: > 100 µM
- TGI [58]: > 100 µM
- TGI [59]: > 100 µM
- TGI [60]: > 100 µM
- TGI [61]: > 87.5 µM
- TGI [63]: > 100 µM

Structure (SMILES): CC(C)=CCC[C@@H](C)C1=C(O)C(N[C@H](C)c2ccccc2)=C(C)C(=O)C1=O
- TGI [1]: > 72.1 µM
- TGI [2]: > 64.3 µM
- TGI [3]: 46.9 µM
- TGI [4]: 20 µM
- TGI [5]: 38.9 µM
- TGI [6]: > 100 µM
- TGI [7]: 20.7 µM
- TGI [8]: 17.9 µM
- TGI [64]: > 100 µM
- TGI [9]: 31.3 µM
- TGI [65]: > 31.7 µM
- TGI [10]: 29.3 µM
- TGI [11]: 14.7 µM
- TGI [12]: 22.1 µM
- TGI [13]: 20.4 µM
- TGI [14]: > 46 µM
- TGI [15]: 25 µM
- TGI [16]: > 30.1 µM
- TGI [17]: > 100 µM
- TGI [19]: 32 µM
- TGI [21]: 67 µM
- TGI [22]: 35.6 µM
- TGI [23]: 24.8 µM
- TGI [24]: > 46.7 µM
- TGI [25]: 9.71 µM
- TGI [26]: 16.9 µM
- TGI [27]: 8.67 µM
- TGI [28]: 13.1 µM
- TGI [29]: > 40 µM
- TGI [30]: 53.4 µM
- TGI [31]: 45.4 µM
- TGI [32]: > 62.3 µM
- TGI [33]: > 60.7 µM
- TGI [66]: 20 µM
- TGI [34]: 4.23 µM
- TGI [35]: > 45.2 µM
- TGI [36]: 36.7 µM
- TGI [39]: > 56.4 µM
- TGI [40]: 38.9 µM
- TGI [41]: 10.8 µM
- TGI [42]: 53.2 µM
- TGI [43]: > 100 µM
- TGI [45]: > 24.1 µM
- TGI [46]: > 100 µM
- TGI [47]: 34.2 µM
- TGI [48]: > 63.2 µM
- TGI [49]: 14.6 µM
- TGI [50]: > 60.1 µM
- TGI [51]: 17.1 µM
- TGI [53]: > 36.2 µM
- TGI [55]: 26.3 µM
- TGI [56]: 10.2 µM
- TGI [57]: 14.1 µM
- TGI [58]: 44.2 µM
- TGI [59]: 35.6 µM
- TGI [60]: > 100 µM
- TGI [61]: 21.1 µM
- TGI [63]: 22.2 µM
